This is an account of results in patent publication US11938136B2, “Compositions for treating spinal muscular atrophy” (Hoffmann-La Roche Inc., priority 2015, dated 2024).

Data set [1] deals with full length SMN2 minigene mRNA. Kind of data set: SMN2 minigene mRNA splicing RT-qPCR assay in cultured cells. As to conditions: Homo sapiens, HEK293-H; HEK293H cells stably transfected with SMN2-A minigene, 24 hours, 7-point concentration curve; read-out: EC1.5x minigene. In kind it is cell-based, human. The text has this: The term “EC1.5x concentration for production of full length SMN2 minigene mRNA” (or “EC1.5x minigene”) is defined as that concentration of test compound that is effective in increasing the amount of full length SMN2 minigene mRNA to a level 1.5-fold greater relative to that in vehicle-treated cells.
The reverse transcription-quantitative PCR-based (RT-qPCR) assay is used to quantify the level of the full length SMN2 minigene (referred to herein by the term “FL SMN2mini”) mRNA containing SMN2 exon 7 in a HEK293H cell line stably transfected with said minigene and treated with a test compound. Materials used and respective sources are listed below in Table 1.
The SMN2-A minigene construct was prepared as described in International Patent Application WO2009/151546A1 page 145 paragraph [00400] to page 147 paragraph [00412](incl. FIG. 1 and FIG. 3 therein).
HEK293H cells stably transfected with the SMN2-A minigene construct (10,000 cells/well) are seeded in 200 μL of cell culture medium (DMEM plus 10% FBS, with 200 μg/mL hygromycin) in 96-well flat-bottom plates and the plate is immediately swirled to ensure proper dispersal of cells and the formation of an even monolayer of cells. Cells are allowed to attach for 6 hours. Test compounds are serially diluted 3.16-fold in 100% DMSO to generate a 7-point concentration curve. A solution of test compound (1 μL, 200× in DMSO) is added to each cell-containing well and the plate is incubated for 24 hours in a cell culture incubator (37° C., 5% CO2, 100% relative humidity). 2 replicates are prepared for each test compound concentration. The cells are then lysed in the Cells-To-Ct lysis buffer and the lysate is stored at −80° C.
Full length SMN2-A minigene and GAPDH mRNA are quantified using the primers and probes referenced in WO2014/209841A2 on page 80 in Table 1. Primer SMN Forward A (SEQ ID NO.1) hybridizes to a nucleotide sequence in exon 7 (nucleotide 22 to nucleotide 40), primer SMN Reverse A (SEQ ID NO.2) hybridizes to a nucleotide sequence in the coding sequence of Firefly luciferase, SMN Probe A (SEQ ID NO.3) hybridizes to a nucleotide sequence in exon 7 (nucleotide 50 to nucleotide 54) and exon 8 (nucleotide 1 to nucleotide 21). The combination of these three oligonucleotides detects only SMN1 or SMN2 minigenes (RT-qPCR) and will not detect endogenous SMN1 or SMN2 genes.
The SMN forward and reverse primers are used at final concentrations of 0.4 μM. The SMN probe is used at a final concentration of 0.15 μM. The GAPDH primers are used at final concentrations of 0.2 μM and the probe at 0.15 μM.
The SMN2-minigene GAPDH mix (15 μL total volume) is prepared by combining 7.5 μL of 2×RT-PCR buffer, 0.4 μL of 25×RT-PCR enzyme mix, 0.75 μL of 20×GAPDH primer-probe mix, 4.0075 μL of water, 2 μL of 10-fold diluted cell lysate, 0.06 μL of 100 μM SMN forward primer, 0.06 μL of 100 μM SMN reverse primer, and 0.225 μL of 100 μM SMN probe.
PCR is carried out at the following temperatures for the indicated time: Step 1: 48° C. (15 min); Step 2: 95° C. (10 min); Step 3: 95° C. (15 sec); Step 4: 60° C. (1 min); then repeat Steps 3 and 4 for a total of 40 cycles.
Each reaction mixture contains both SMN2-A minigene and GAPDH primers/probe sets (multiplex design), allowing simultaneous measurement of the levels of two transcripts.
The increase in the abundance of the FL SMN2mini mRNA relative to that in cells treated with vehicle control is determined from real-time PCR data using a modified ΔΔCt method (as described in Livak and Schmittgen, Methods, 2001, 25:402-8). The amplification efficiency E is calculated from the slope of the amplification curve for FL SMN2mini and GAPDH individually. The abundance of FL SMN2mini and GAPDH mRNA are then calculated as (1+E)^−Ct, where Ct is the threshold value for each amplicon. The abundance of FL SMN2mini mRNA is normalized to GAPDH mRNA abundance. […]

The subject of data set [2] is patients with Types 2 and 3 SMA. As to conditions: two-year treatment period, compared with approximately two-point decline in the placebo arm; cited from earlier work.
Data set [3] is described as follows: Stability of olesoxime (solid state, oral suspension in sesame oil). In kind it is physicochemical. As to conditions: 25° C./60% RH. The procedure: Examples of compositions comprising olexosime are described in US2010099652A1. […] Olesoxime has low aqueous solubility (less than 5 μg/ml) across the physiological pH range. It is freely soluble or soluble in a range of non-aqueous solvents.
7.5 g crystalline olesoxime powder (particle size distribution with d90 value 70-90 μm) was suspended in 75 ml (61.6 g) sesame oil (refined) as vehicle through agitation (e.g. shaking) to yield a homogeneous suspension (final olesoxime concentration 100 mg/ml).

Data set [4] can be described thus: Solubility. In kind it is physicochemical.
Data set [5] deals with neonatal rats. As to conditions: cited from earlier work.
Data set [6] concerns adult mice. As to conditions: cited from earlier work.
The test system of data set [7] is splicing events and expression levels of genes. As to conditions: Palacino et al, Nat Chem Biol. 2015, cited from earlier work.

Converted amounts (≈) assume the structure as drawn. Like-named read-outs stand apart in the source and are kept apart here. Where only a bound is given, the exact number is not on record here.

Take `CC[C@@H]1CN(c2ccc3nc(-c4ccc5nc(C)cn5n4)cc(=O)n3c2)CCN1` [Example 39, 7-[(3R)-3-ethylpiperazin-1-yl]-2-(2-methylimidazo[1,2-b]pyridazin-6-yl)pyrido[1,2-a]pyrimidin-4-one]: in data set [1], the EC (1.5-fold increase) was determined as 0.0009 µM.
Same read-out and setting: next, `Cc1cn2nc(-c3cc(=O)n4cc(N5CCNC(C)(C)C5)cc(C)c4n3)ccc2n1` [Example 36, 7-(3,3-dimethylpiperazin-1-yl)-9-methyl-2-(2-methylimidazo[1,2-b]pyridazin-6-yl)pyrido[1,2-a]pyrimidin-4-one]: 0.005 µM; `Cc1cn2nc(-c3cc(=O)n4cc(N5CCN[C@H](C)C5)cc(C)c4n3)ccc2n1` [Example 34, 9-methyl-2-(2-methylimidazo[1,2-b]pyridazin-6-yl)-7-[(3R)-3-methylpiperazin-1-yl]pyrido[1,2-a]pyrimidin-4-one]: 0.0009 µM.
As to `Cc1cn2nc(-c3cc(=O)n4cc(N5CCCNCC5)ccc4n3)ccc2n1` [Example 13, 7-(1,4-diazepan-1-yl)-2-(2-methylimidazo[1,2-b]pyridazin-6-yl)pyrido[1,2-a]pyrimidin-4-one], in data set [1], the EC (1.5-fold increase) was 0.005 µM.
As for `CC(C)CCC[C@@H](C)[C@H]1CC[C@H]2[C@@H]3CCC4=C/C(=N/O)CC[C@]4(C)[C@H]3CC[C@]12C` (stereo in doubt) [Olesoxime, Cholest-4-en-3-one oxime], the “motor function (motor function measure, MFM)” value in data set [2] was “maintenance of motor function”. Further, the “stable in the solid state” value in data set [3] is on record as over 36 months. In addition, the solubility in data set [4] (aqueous medium, aqueous buffer, across the physiological pH range, read-out: aqueous solubility) was under 0.005 mg/mL; in data set [4] (sesame oil, oil or lipid, read-out: solubility in sesame oil), about 35 mg/mL (≈ 87.6 mM). Moreover, the “effect on motor neurons after nerve lesion” value in data set [5] was “rescues motor neurons from cell death”. The “effect on nerve regeneration after nerve crush” value in data set [6] is given as “promotes nerve regeneration”.
As to `Cc1cn2nc(-c3cc(=O)n4cc(N5CCN[C@@H](C)C5)cc(C)c4n3)cc(C)c2n1` [Example 24, 2-(2,8-dimethylimidazo[1,2-b]pyridazin-6-yl)-9-methyl-7-[(3S)-3-methylpiperazin-1-yl]pyrido[1,2-a]pyrimidin-4-one], the EC (1.5-fold increase) in data set [1] was 0.0004 µM.
Consider `Cc1cn2nc(-c3cc(=O)n4cc(N5CCN[C@H](C)C5)cc(C)c4n3)cc(C)c2n1` [Example 25, 2-(2,8-dimethylimidazo[1,2-b]pyridazin-6-yl)-9-methyl-7-[(3R)-3-methylpiperazin-1-yl]pyrido[1,2-a]pyrimidin-4-one], for which, in data set [1], the EC (1.5-fold increase) amounted to 0.0005 µM.
Take `Cc1cn2nc(-c3cc(=O)n4cc(N5CCN[C@@H](C)C5)cc(C)c4n3)ccc2n1` [Example 33, 9-methyl-2-(2-methylimidazo[1,2-b]pyridazin-6-yl)-7-[(3S)-3-methylpiperazin-1-yl]pyrido[1,2-a]pyrimidin-4-one]: the EC (1.5-fold increase) in data set [1] was 0.0005 µM.
`Cc1cn2nc(-c3cc(=O)n4cc(N5C[C@H](C)N[C@@H](C)C5)cc(C)c4n3)ccc2n1` [Example 38, 7-[(3S,5S)-3,5-dimethylpiperazin-1-yl]-9-methyl-2-(2-methylimidazo[1,2-b]pyridazin-6-yl)pyrido[1,2-a]pyrimidin-4-one]: the EC (1.5-fold increase) in data set [1] amounted to 0.0003 µM.
Same read-out and setting: the result for `Cc1cn2nc(-c3cc(=O)n4cc(N5CCN[C@@H](C)C5)ccc4n3)cc(C)c2n1` [Example 8, 2-(2,8-dimethylimidazo[1,2-b]pyridazin-6-yl)-7-[(3S)-3-methylpiperazin-1-yl]pyrido[1,2-a]pyrimidin-4-one] reads 0.0003 µM; that for `Cc1cn2nc(-c3cc(=O)n4cc(N5CCNC6(CC6)C5)cc(C)c4n3)cc(C)c2n1` [Example 28, 7-(4,7-diazaspiro[2.5]octan-7-yl)-2-(2,8-dimethylimidazo[1,2-b]pyridazin-6-yl)-9-methyl-pyrido[1,2-a]pyrimidin-4-one], 0.005 µM.
For the molecule `Cc1cn2nc(-c3cc(=O)n4cc(N5C[C@H](C)N[C@@H](C)C5)ccc4n3)cc(C)c2n1` [Example 29, 2-(2,8-dimethylimidazo[1,2-b]pyridazin-6-yl)-7-[(3S,5S)-3,5-dimethylpiperazin-1-yl]pyrido[1,2-a]pyrimidin-4-one], the EC (1.5-fold increase) in data set [1] was determined as 0.0003 µM.
As to `Cc1cn2nc(-c3cc(=O)n4cc(N5CC[C@H](N6CCCC6)C5)ccc4n3)cc(C)c2n1` [Example 30, 2-(2,8-dimethylimidazo[1,2-b]pyridazin-6-yl)-7-[(3S)-3-pyrrolidin-1-ylpyrrolidin-1-yl]pyrido[1,2-a]pyrimidin-4-one], the EC (1.5-fold increase) in data set [1] came out at 0.003 µM.
Same read-out and setting: next, `Cc1cn2nc(-c3cc(=O)n4cc(N5CCN[C@H](C)C5)ccc4n3)cc(C)c2n1` [Example 9, 2-(2,8-dimethylimidazo[1,2-b]pyridazin-6-yl)-7-[(3R)-3-methylpiperazin-1-yl]pyrido[1,2-a]pyrimidin-4-one]: 0.0001 µM; `Cc1cn2nc(-c3cc(=O)n4cc(N5CCN6CCC[C@@]6(C)C5)ccc4n3)cc(C)c2n1` [Example 5, 7-[(8aS)-8a-methyl-1,3,4,6,7,8-hexahydropyrrolo[1,2-a]pyrazin-2-yl]-2-(2,8-dimethylimidazo[1,2-b]pyridazin-6-yl)pyrido[1,2-a]pyrimidin-4-one]: 0.0006 µM.
On to `Cc1cn2nc(-c3cc(=O)n4cc(N5CCNC(C)(C)C5)ccc4n3)cc(C)c2n1` [Example 22, 2-(2,8-dimethylimidazo[1,2-b]pyridazin-6-yl)-7-(3,3-dimethylpiperazin-1-yl)pyrido[1,2-a]pyrimidin-4-one], for which, in data set [1], the EC (1.5-fold increase) was 0.0009 µM.
On to `CC1(C)CC(Oc2ccc(-c3ccc(-c4cn[nH]c4)cc3O)nn2)CC(C)(C)N1` [NVS-SM1], for which the “candidate events where splicing changed in response to treatment” value in data set [7] is on record as 39. The “number of genes changed at greater than ±2-fold (p<0.05)” value in data set [7] (expression level) is 175.
Consider `Cc1cn2nc(-c3cc(=O)n4cc(N5CCN6CCC[C@H]6C5)ccc4n3)ccc2n1` [Example 15, 7-[(8aS)-3,4,6,7,8,8a-hexahydro-1H-pyrrolo[1,2-a]pyrazin-2-yl]-2-(2-methylimidazo[1,2-b]pyridazin-6-yl)pyrido[1,2-a]pyrimidin-4-one], for which, in data set [1], the EC (1.5-fold increase) is 0.004 µM.

What is called solubility is the dissolved amount per volume that the medium holds.
